Test results reported in patent US11969425B2, “Inhibitor of indoleamine-2,3-dioxygenase (IDO)” (InventisBio LLC, priority 2016, dated 2024).

Test system: kynurenine production in HeLa cells
Test: Inhibition of kynurenine production in HeLa cells
Type: cell-based, human
Conditions: HeLa cells, human IFN-γ 50 ng/mL, 48 h, kynurenine read at 480 nm; read-out: IC50
Experimental: The effect of compounds described herein on the inhibition of kynurenine production in HeLa cells (derived from human cervical cancer) was determined. HeLa cells were seeded into a 96-well culture plate at a density of 5×10^3 per well in RPMI1640/phenol red free media (from GIBCO) with 2 mM L-glutamine and 10% fetal bovine serum (FBS, from GIBCO) and grown overnight in a 37° C. incubator with 5% CO2. Twenty-four hours later, human IFN-γ (from GIBCO) (final concentration 50 ng/mL) and test compound solutions (serially diluted to different wells) were added to each well with a final volume of 200 uL per well. Forty-eight hours after incubation with compounds, 140 uL supernatant was taken from each well and was transferred to a new 96-well plate. Ten microliters of 6.1 N trichloroacetic acid were added into each well, mixed and incubated at 50° C. for 30 minutes. The reaction mixture was then centrifuged for 10 minutes at 2500 rpm and 100 uL of the supernatant per well was transferred to another 96 well plate and mixed with 100 uL of 2% (w/v) p-dimethylaminobenzaldehyde in acetic acid. The yellow color derived from kynurenine was measured at 480 nm using a SPECTRAmax i3 reader. Each compound concentration was done in triplicates and compound IC50 value was calculated using nonlinear regression using Graphpad Prism 5.0.
The inhibitory activity of representative compounds described herein, compared with another IDO inhibitor, such as INCB-24360, Controls 1 and 2 are shown in Table 2.

SMILES	IC50 [nM]
CCC(C(=O)O)c1ccc(N(CC(C)C)C2CCOCC2)c(NC(=O)Nc2ccc(F)cc2F)c1 (single isomer, unassigned) [Compound 65A]	0.8
CCC(C(=O)O)c1ccc(N(CC(C)C)CC(C)C)c(Nc2ccc(S(C)(=O)=O)cc2)c1 (single isomer, unassigned) [Compound 60A]	33
CCC(C(=O)O)c1ccc(N(CC(C)C)C2CCCCC2)c(NC(=O)Nc2ccc(F)cc2F)c1 (single isomer, unassigned) [Compound 62B]	0.2
CCC(C(=O)O)c1ccc(N(CC(C)C)CC(C)C)c(Nc2ccc(S(C)(=O)=O)cc2)c1 (single isomer, unassigned) [Compound 60B]	2.8
CCC(C(=O)O)c1ccc(N(CC(C)C)C2CCCCC2)c(NC(=O)Nc2ccc(F)cc2F)c1 (single isomer, unassigned) [Compound 62A]	1.4
CCC(C(=O)O)c1ccc(N(CC(C)C)C2CCOCC2)c(Nc2ccc(Cl)cc2)c1 (stereo not shown) [Compound 68B]	0.7

Same assay, conditions: Homo sapiens, HeLa, 48 h, HeLa cells, human IFN-γ 50 ng/mL, kynurenine read at 480 nm, read-out: IC50

SMILES	IC50 [nM]
CC(C)C1COCCN1c1ncc(C2(C(=O)O)CCC2)cc1Nc1ccc(Cl)cc1 (stereo not shown) [Compound 128]	9.3
CC(C)CN(CC(C)C)c1ccc(SCC(=O)O)cc1NC(=O)Nc1ccc(F)cc1F [Compound 36]	2.8
CCN(c1ccc(C2(C(=O)O)CCC2)cc1NC(=O)Nc1ccc(F)cc1F)C1CCCCC1 [Compound 20]	0.5
CC(C)CN(c1ccc(C2(C(=O)O)CCC2)cc1Nc1ccc(Cl)cc1)C1CCOCC1 [Compound 57]	0.2
CCOc1ncc(Nc2cc(C3(C(=O)O)CCC3)cnc2N(CC)C2CCOCC2)cn1 [Compound 124]	11.3
CCOc1ncc(Nc2cc(C3(C(=O)O)CCC3)ccc2N(CC(C)C)CC(C)C)cn1 [Compound 97]	2.4
CC(C)CN(CC(C)C)c1ccc(C2(C(=O)O)CC(F)(F)C2)cc1NC(=O)Nc1ccc(F)cc1F [Compound 29]	4
Cc1cc(NC(=O)Nc2cc(OC(C)(C)C(=O)O)ccc2N(CC(C)C)CC(C)C)on1 [Compound 34]	7.7
CC(C)CN(c1ccc(C2(C(=O)O)CCC2)cc1Nc1ccc(S(C)(=O)=O)cc1)C1CCOCC1 [Compound 77]	3
CC(C)CN(CC(C)C)c1ccc(C2(C(=O)O)CC2)cc1NC(=O)Nc1ccc(F)cc1F [Compound 7, 1-[4-[bis(2-methylpropyl)amino]-3-[[(2,4-difluorophenyl)carbamoyl]amino]phenyl]cyclopropane-1-carboxylic acid]	6.3
CCOc1ncc(Nc2cc(C3(C(=O)O)CCC3)cnc2N2CCC(c3ccccc3)CC2)cn1 [Compound 126]	7.5
CC(C)CN(c1ccc(C2(C(=O)O)CCC2)cc1Nc1ccc(C#N)cn1)C1CCCCC1 [Compound 94]	0.2
CCC(C(=O)O)c1ccc(N(CC(C)C)C2CCOCC2)c(Nc2ccc(C#N)cc2)c1 (stereo not shown) [Compound 70A]	0.4
CCOc1ncc(Nc2cc(C(C)(C)C(=O)O)ccc2N(CC(C)C)C2CCOCC2)cn1 [Compound 121]	4.1
CC(C)CN(c1ncc(C2(C(=O)O)CCC2)cc1NC(=O)Nc1ccc(F)cc1F)C1CCOCC1 [Compound 90]	33
Cc1cc(NC(=O)Nc2cc(C3(C(=O)O)CCC3)ccc2N(CC(C)C)CC(C)C)on1 [Compound 17]	0.8
CC(C)CN(c1ccc(CC(=O)O)cc1Nc1ccc(C#N)cc1)C1CCCCC1 [Compound 99]	3.9
CCOc1ncc(Nc2cc(C(C)(C)C(=O)O)ccc2N(CC2CC2)C(C)C)cn1 [Compound 114]	25
Cc1cc(NC(=O)Nc2cc(C3(C(=O)O)CCC3)cnc2N(CC(C)C)CC(C)C)on1 [Compound 85]	19
CC(C)CN(CC(C)C)c1ccc(OC(C)(C)C(=O)O)cc1NC(=O)Nc1cncnc1 [Compound 33]	48

SMILES	IC50 [nM]
CC(C)CN(CC(C)C)c1ccc(C2(c3nnn[nH]3)CC(F)(F)C2)cc1NC(=O)Nc1ccc(F)cc1F [Compound 30]	1
CC(C)CN(CC(C)C)c1ccc(CC(=O)O)cc1NC(=O)Nc1ccc(F)cc1F [Compound 1, 2-[4-[bis(2-methylpropyl)amino]-3-[[(2,4-difluorophenyl)carbamoyl]amino]phenyl]acetic acid]	130
Cc1cc(NC(=O)Nc2cc(C3(C(=O)O)CCC3)ccc2N(CC(C)C)C2CCOCC2)on1 [Compound 27]	5.7
CC(C)N(CC1CC1)c1ncc(C2(C(=O)O)CCC2)cc1Nc1ccc(C#N)cc1 [Compound 116]	0.5
CC(C)CN(CC(C)C)c1ccc(C2(C(=O)O)CCC2)cc1NC(=O)Nc1cncnc1 [Compound 18]	6.6
Cc1cc(NC(=O)Nc2cc(C3(C(=O)O)CCCC3)ccc2N(CC(C)C)C2CCOCC2)on1 [Compound 15]	1.4
CC(C)CN(CC(C)C)c1ccc(OCC(=O)O)cc1NC(=O)Nc1ccc(F)cc1F [Compound 31]	11.8
CC(C)CN(c1ccc(C2(C(=O)O)CCC2)cc1Nc1ccc(C#N)cc1)C1CCCCC1 [Compound 56]	0.2
CCOc1ccc(Nc2cc(C3(C(=O)O)CCC3)ccc2N(CC(C)C)C2CCOCC2)cc1 [Compound 73]	0.4
CC(C)CN(c1ccc(C2(C(=O)O)CCC2)cc1NC(=O)Nc1ccc(F)cc1F)C1CCCCC1 [Compound 21]	0.6
CC(C)CN(CC(C)C)c1c(F)cc(Cc2nnn[nH]2)cc1NC(=O)Nc1ccc(F)cc1F [Compound 6]	8.5
COCCN(c1ccc(SC(C)(C)C(=O)O)cc1NC(=O)Nc1ccc(F)cc1F)C1CCCCC1 [Compound 45]	78
CC(C)CN(c1ccc(SC(C)(C)C(=O)O)cc1NC(=O)Nc1ccc(F)cc1F)C1CCOCC1 [Compound 43]	134
CCOc1ccc(Nc2cc(C3(C(=O)O)CCC3)ccc2N(CC(C)C)C2CCCCC2)cc1 [Compound 53]	1
CC(C)CN(c1ncc(C2(C(=O)O)CCC2)cc1Nc1ccc(Cl)cc1)C1CCOCC1 [Compound 92]	0.2
CC(C)CN(c1ccc(CC(=O)O)cc1Nc1ccc(Cl)cc1)C1CCOCC1 [Compound 104]	1.8
CC(C)CN(CC(C)C)c1ccc(C(C)C(=O)O)cc1NC(=O)Nc1ccc(F)cc1F (stereo not shown) [Compound 2]	9.1
CC(C)CN(c1ccc(C2(C(=O)O)CCC2)cc1Nc1ccc(Cl)cn1)C1CCOCC1 [Compound 102]	0.2
CC(C)N(CC1CC1)c1ccc(C2(C(=O)O)CCC2)cc1Nc1ccc(C#N)cn1 [Compound 108]	0.3
CC(C)CN(c1ccc(C2(C(=O)O)CCC2)cc1Nc1cncnc1)C1CCCCC1 [Compound 54]	0.6

SMILES	IC50 [nM]
CCN(c1ccc(C2(C(=O)O)CCC2)cc1NC(=O)Nc1ccc(F)cc1F)C1CCOCC1 [Compound 24]	2.2
CCOc1ncc(Nc2cc(C3(C(=O)O)CCC3)cnc2N(CC(C)C)C2CCOCC2)cn1 [Compound 122]	2.3
CC(C)N(CC1CC1)c1ccc(C2(C(=O)O)CCC2)cc1Nc1ccc(Cl)cn1 [Compound 113]	0.4
CC(C)CN(CC(C)C)c1ncc(C2(C(=O)O)CCC2)cc1NC(=O)Nc1ccc(F)cc1F [Compound 83]	5.4
CC(C)CN(CC(C)C)c1ccc(OC(C)(C)C(=O)O)cc1NC(=O)Nc1ccc(F)cc1F [Compound 32]	0.8
CC(C)CN(c1ccc(C2(C(=O)O)CCCC2)cc1NC(=O)Nc1ccc(F)cc1F)C1CCCCC1 [Compound 11]	0.9
CC(C)CN(c1ccc(C2(C(=O)O)CCC2)cc1NC1CCCC1)C1CCOCC1 [Compound 78]	13.9
CC(C)CN(CC(C)C)c1ccc(SC(C)(C)C(=O)O)cc1NC(=O)Nc1ccc(F)cc1F [Compound 37]	19.9
Cc1ccc(NC(=O)Nc2cc(C3(C(=O)O)CCCC3)ccc2N(CCC(F)(F)F)Cc2ccc(OC(F)(F)F)cc2)cc1 [Compound 14]	0.5
COCCN(c1ccc(C2(C(=O)O)CCC2)cc1NC(=O)Nc1ccc(F)cc1F)C1CCCCC1 [Compound 22]	2.1
CC(C)CN(CC(C)C)c1ccc(C2(C(=O)O)CCC2)cc1Nc1ccc(Cl)cc1 [Compound 96]	0.4
CC(C)CN(CC(C)C)c1ncc(C2(C(=O)O)CCC2)cc1Nc1ccc(C#N)cc1 [Compound 93]	0.3
CC(C)CN(CC(C)C)c1ccc(C2(c3nnn[nH]3)CCCC2)cc1NC(=O)Nc1ccc(F)cc1F [Compound 10, 3-[2-[bis(2-methylpropyl)amino]-5-[1-(1H-1,2,3,4-tetrazol-5-yl)cyclopentyl]phenyl]-1-(2,4-difluorophenyl)urea]	0.9
CC(C)N(CC1CC1)c1ccc(C2(C(=O)O)CCC2)cc1Nc1ccc(Cl)cc1 [Compound 95]	0.4
CC(C)CN(c1ccc(C2(C(=O)O)CCC2)cc1Nc1ccc(Cl)cc1)C1CCCCC1 [Compound 52]	0.3
CC(C)N(CC1CC1)c1ccc(C2(C(=O)O)CCC2)cc1Nc1ccc(C#N)cc1 [Compound 112]	0.2
CC(C)CN(CC(C)C)c1ccc(C2(C(=O)O)CCCC2)cc1Nc1ncccn1 [Compound 49]	> 316
CC(C)CN(CC(C)C)c1ccc(C2(C(=O)O)CCOCC2)cc1NC(=O)Nc1ccc(F)cc1F [Compound 8, 4-[4-[bis(2-methylpropyl)amino]-3-[[(2,4-difluorophenyl)carbamoyl]amino]phenyl]oxane-4-carboxylic acid]	47
